This experiment relates to YAP1-TEAD and TAZ-TEAD activity (TEAD responsive promoter element). As to the kind of experiment: TEAD-Luciferase Reporter Assay (8XGTIIC-Luciferase construct stably integrated in tumor cell lines). It is filed as cell-based, human. As to conditions: 8XGTIIC-Luciferase reporter in tumor cell lines, 48 hrs compound treatment, 10 doses 1-10000 nM. The source says: TEAD-Luciferase Reporter Assay
Luciferase-based gene reporter assays were used, employing the TEAD responsive promoter element that are stably integrated to different human tumor cell lines in order to monitor YAP1-TEAD and TAZ-TEAD activity and to study YAP1/TAZ-TEAD activity modulation by small molecule compounds. Luciferase-based gene reporter assays employing the GAPDH promoter element and stably integrated to different human tumor cell lines are used as counter screen control cell lines.
Tumor cell lines with stable integration of the 8XGTIIC-Luciferase construct (Dupont et al., Nature 2011) or the GAPDH-Luciferase control plasmid, are seeded in culture medium in 96-well plates at a density of 8000 cells/well. Following an overnight incubation in a 37° C., 5% CO2 growth chamber, cells are treated with compounds described above at 10 doses ranging between 1 and 10000 nM for 48 hrs. After compound incubation, cells are lysed with Bright-Glo Luciferase Assay System (Promega E2620) and luciferase activity is measured using a luminescent plate reader.
The inhibitory activity of the compounds with respect to luciferase activity is given by the concentration which inhibits 50% of activity of non-treated cells. IC50s are determined with a nonlinear regression model on XLfit software analysis (IDBS, UK).

Consider `C=CC(=O)N(C)c1ccc2c(c1)CCC2Oc1ccc(C(F)(F)F)cc1` (centres unmarked) [Example 83, N-methyl-N-(1-(4-(trifluoromethyl)phenoxy)-2,3-dihydro-1H-inden-5-yl)acrylamide], for which, for the setting “Homo sapiens”, it took 109 nM to reach half-maximal inhibition (IC50).
Same read-out and setting: in the case of `C=CC(=O)N(C)c1ccc2c(c1)CCC2Oc1cccc(C(F)(F)F)c1` (centres unmarked) [Example 89, N-methyl-N-(1-(3-(trifluoromethyl)phenoxy)-2,3-dihydro-1H-inden-5-yl)acrylamide] it was 1060 nM; in that of `C=CC(=O)Nc1ccc2c(c1)CCC2Nc1ccc(C(F)(F)F)nc1` (centres unmarked) [Example 20, N-(1-((6-(trifluoromethyl)pyridin-3-yl)amino)-2,3-dihydro-1H-inden-5-yl)acrylamide], 358 nM.
Still for that read-out and setting: the value for `C=CC(=O)Nc1ccc2c(c1)C(Nc1ccc(C(F)(F)F)cc1)CC2` (centres unmarked) [Example 12, N-(3-((4-(trifluoromethyl)phenyl)amino)-2,3-dihydro-1H-inden-5-yl)acrylamide] was 55 nM; that for `C=CC(=O)Nc1ccc2c(c1)C(Nc1ccc(F)cc1)CC2` (centres unmarked) [Example 15, N-(3-((4-fluorophenyl)amino)-2,3-dihydro-1H-inden-5-yl)acrylamide] was 48 nM.
The same measure, in the same setting: in the case of `C=CC(=O)Nc1ccc2c(c1)CCC2Oc1cccc(OC(F)(F)F)c1` (centres unmarked) [Example 46, N-(1-(3-(trifluoromethoxy)phenoxy)-2,3-dihydro-1H-inden-5-yl)acrylamide] it was 4560 nM; in that of `C=CC(=O)Nc1ccc2c(c1)CCC2Nc1cc(F)cc(F)c1` (centres unmarked) [Example 9, N-(1-((3,5-difluorophenyl)amino)-2,3-dihydro-1H-inden-5-yl)acrylamide], 167 nM; in that of `C=CC(=O)Nc1ccc2c(c1)CC[C@H]2Oc1cccc(C(F)(F)F)c1` (single isomer, unassigned) [Example 85], 42 nM.
For `C=CC(=O)Nc1ccc2c(c1)C(C)(C)CC2Nc1cccc(C(F)(F)F)c1` (centres unmarked) [Example 65, N-(3,3-dimethyl-1-((3-(trifluoromethyl)phenyl)amino)-2,3-dihydro-1H-inden-5-yl)acrylamide], it took 1850 nM to reach half-maximal inhibition (Homo sapiens) (IC50).
The molecule “(S)—N-(1-((4-fluorophenyl)amino)-2,3-dihydro-1H-inden-5-yl)acrylamide [Example 6]” showed an IC50 of 31 nM.
`C=CC(=O)Nc1ccc2c(c1)CC(Nc1ccc(C(F)(F)F)cc1)C2` (centres unmarked) [Example 52, N-[2-[4-(trifluoromethyl)anilino]-2,3-dihydro-1H-inden-5-yl]acrylamide]: the IC50 (Homo sapiens) turned out to be 2820 nM.
Consider `C=CC(=O)Nc1ccc2c(c1)C[C@H](Nc1cccc(F)c1)C2` (single isomer, unassigned) [Example 49], for which inhibition (Homo sapiens) was half-maximal at 105 nM (IC50).
The same measure, in the same setting: the value for `C=CC(=O)N(C)c1ccc2c(c1)CCC2Nc1cccc(C(F)(F)F)c1` (centres unmarked) [Example 4, N-methyl-N-(1-((3-(trifluoromethyl)phenyl)amino)-2,3-dihydro-1H-inden-5-yl)acrylamide] was 142 nM; that for `C=CC(=O)Nc1ccc2c(c1)C(Oc1ccc(Cl)cc1)CC2` (centres unmarked) [Example 77, N-(3-(4-chlorophenoxy)-2,3-dihydro-1H-inden-5-yl)acrylamide] was 56 nM.
